Experimental data as given in patent US20200131159A1, “POSITIVE ALLOSTERIC MODULATORS OF THE MUSCARINIC ACETYLCHOLINE RECEPTOR M1” (Vanderbilt University, priority 2018, published 2020).

Biological target: T1, human mAChR M1 (Homo sapiens, UniProt P11229)
T1 construct: hM1 and hM4 cDNAs were purchased from Missouri S&T cDNA Resource; host or cells: CHO-K1 cells, stably transfected with Lipofectamine2000
T1 sequence (P11229 1-460): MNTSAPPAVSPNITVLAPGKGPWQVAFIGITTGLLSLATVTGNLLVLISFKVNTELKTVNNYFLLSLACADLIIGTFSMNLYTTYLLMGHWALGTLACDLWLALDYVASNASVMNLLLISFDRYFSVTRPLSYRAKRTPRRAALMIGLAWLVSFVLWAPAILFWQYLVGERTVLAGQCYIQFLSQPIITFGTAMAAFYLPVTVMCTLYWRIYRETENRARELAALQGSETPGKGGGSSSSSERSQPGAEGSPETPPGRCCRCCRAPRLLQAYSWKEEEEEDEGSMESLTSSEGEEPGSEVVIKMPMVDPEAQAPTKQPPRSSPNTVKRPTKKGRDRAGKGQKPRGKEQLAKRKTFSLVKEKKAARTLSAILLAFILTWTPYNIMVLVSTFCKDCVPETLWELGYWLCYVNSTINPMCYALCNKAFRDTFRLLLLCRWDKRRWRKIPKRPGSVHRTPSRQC
Experiment: mAChR M1 cell-based functional assay (calcium mobilization, PAM mode, EC20 acetylcholine)
Details: CHO-K1 cells expressing hM1, calcium flux (Fluo-4); for Emax: EC20 acetylcholine response; for EC50: concentration-dependent increase in the EC20 acetylcholine response
From the text: Chinese hamster ovary (CHO-K1) cells stably expressing rat (r)M1 were purchased from the American Type Culture Collection and cultured according to their indicated protocol. CHO cells stably expressing human (h)M2, hM3, and hM5 were described previously (Levey, et al., 1991); hM1 and hM4 cDNAs were purchased from Missouri S&T cDNA Resource; rM4 cDNA was provided by T. I. Bonner (National Institutes of Health, Bethesda, Md.). rM2 and rM3 were cloned from a rat brain cDNA library and sequence verified. hM1, rM2, rM3, hM4, and rM4 cDNAs were used to stably transfect CHO-K1 cells purchased from the American Type Culture Collection using Lipofectamine2000. To make stable rM2, hM2, rM3, hM4, and rM4 cell lines for use in calcium mobilization assays, these cells also were stably transfected with a chimeric G-protein (Gqi5) (provided by B. R. Conklin, University of California, San Francisco) using Lipofectamine 2000. rM1, hM1, rM3, hM3, rM5, and hM5 cells were grown in Ham's F-12 medium containing 10% heat-inactivated fetal bovine serum (FBS), 20 mM HEPES, and 50 µg/mL G418 sulfate. rM2-Gqi5, hM2-Gqi5, and hM4-Gqi5 cells were grown in the same medium also containing 500 μg/mL Hygromycin B. Stable rM4-Gqi5 cells were grown in DMEM containing 10% heat-inactivated FBS, 20 mM HEPES, 400 μg/mL G418 sulfate, and 500 μg/mL Hygromycin B.
For high throughput measurement of agonist-evoked increases in intracellular calcium, CHO-K1 cells stably expressing muscarinic receptors were plated in growth medium lacking G418 and hygromycin at 15,000 cells/20 μL/well in Greiner 384-well black-walled, tissue culture (TC)-treated, clear-bottom plates (VWR). Cells were incubated overnight at 37° C. and 5% CO2. The next day, cells were washed using an ELX 405 (BioTek) with four washes (80 μL) of assay buffer then aspirated to 20 μL. Next, 20 μL of 16 μM Fluo-4/acetoxymethyl ester (Invitrogen, Carlsbad, Calif.) prepared as a 2.3 mM stock in DMSO and mixed in a 1:1 ratio with 10% (w/v) Pluronic F-127 and diluted in assay buffer was added to the wells and the cell plates were incubated for 50 min at 37° C. and 5% CO2. Dye was removed by washing with the ELX 405 (four 80 μL washes of assay buffer) then aspirated to 20 μL. Compound master plates were formatted in an 11 point CRC format (1:3 dilutions) in 100% DMSO with a starting concentration of 10 mM using the BRAVO liquid handler (Agilent). Test compound CRCs were then transferred to daughter plates (240 nL) using the Echo acoustic plate reformatter (Labcyte, Sunnyvale, Calif.) and then diluted into assay buffer (40 μL) to a 2× stock using a Thermo Fisher Combi (Thermo Fisher Scientific, Waltham, Mass.).
Calcium flux was measured using the Functional Drug Screening System (FDSS) 6000 (Hamamatsu Corporation, Tokyo, Japan) as an increase in the fluorescent static ratio. Compounds were applied to cells (20 μL, 2×) using the automated system of the FDSS 6000 at 4 s into the 300 s protocol and the data were collected at 1 Hz. […] Agonist activity was analyzed as a concentration-dependent increase in calcium mobilization upon compound addition. Emax values for agonist activity are expressed relative to the maximum for acetylcholine. Positive allosteric modulator activity was analyzed as a concentration-dependent increase in the EC20 acetylcholine response. Antagonist activity was analyzed as a concentration-dependent decrease in the […] acetylcholine response. Concentration-response curves were generated using a four-parameter logistical equation in XLfit curve fitting software (IDBS, Bridgewater, N.J.) for Excel (Microsoft, Redmond, Wash.) or Prism (GraphPad Software, Inc., San Diego, Calif.).
Activity (EC50 and Emax) was determined in the mAChR M1 cell-based functional assay as described above and the data are shown in Table 2. The compound numbers correspond to the compound numbers used in Table 1.

SMILES | Emax [%] | EC50 [nM]
Cn1cc2c(-c3cc(F)c(Cc4cc(C(=O)N[C@H]5CCCC[C@@H]5O)c5ncccc5c4)c(F)c3)cccc2n1 [compound 22, 6-[[2,6-difluoro-4-(2-methylindazol-4-yl)phenyl]methyl]-N-[(1S,2S)-2-hydroxycyclohexyl]quinoline-8-carboxamide] | 42 | 5710
Cc1c(Cc2ccc(-n3cccn3)cc2)cc(C(=O)N[C@H]2CCCCC[C@@H]2O)c2ncccc12 [compound 24, N-[(1S,2S)-2-hydroxycycloheptyl]-5-methyl-6-[(4-pyrazol-1-ylphenyl)methyl]quinoline-8-carboxamide] | 66 | 
Cc1c(Cc2ccc(-n3cccn3)cc2)cc(C(=O)N[C@H]2CCC[C@@H]2O)c2ncccc12 [compound 26, N-[(1S,2S)-2-hydroxycyclopentyl]-5-methyl-6-[(4-pyrazol-1-ylphenyl)methyl]quinoline-8-carboxamide] | 81 | 958
Cc1c(Cc2ccc(-n3cccn3)cc2)cc(C(=O)N[C@H]2CC[C@@H]2O)c2ncccc12 [compound 27, N-[(1S,2S)-2-hydroxycyclobutyl]-5-methyl-6-[(4-pyrazol-1-ylphenyl)methyl]quinoline-8-carboxamide] | 73 | 1710
Cc1c(Cc2ccc(-n3cccn3)cc2)cc(C(=O)NC2CCOCC2)c2ncccc12 [compound 28, 5-methyl-6-[(4-pyrazol-1-ylphenyl)methyl]-N-tetrahydropyran-4-yl-quinoline-8-carboxamide] | 41 | 2250
Cc1c(Cc2ccc(-c3ccn(C)n3)nc2)cc(C(=O)NC2CCOCC2)c2ncccc12 [compound 31, 5-methyl-6-[[6-(1-methylpyrazol-3-yl)-3-pyridyl]methyl]-N-tetrahydropyran-4-yl-quinoline-8-carboxamide] | 67 | 4390
Cc1nc(-c2ccc(Cc3cc(C(=O)N[C@H]4CCCCC[C@@H]4O)c4ncccc4c3C)cc2)co1 [compound 33, N-[(1S,2S)-2-hydroxycycloheptyl]-5-methyl-6-[[4-(2-methyloxazol-4-yl)phenyl]methyl]quinoline-8-carboxamide] | 75 | 2040
Cc1nc(-c2ccc(Cc3cc(C(=O)NC4CCOCC4)c4ncccc4c3C)cc2)co1 [compound 35, 5-methyl-6-[[4-(2-methyloxazol-4-yl)phenyl]methyl]-N-tetrahydropyran-4-yl-quinoline-8-carboxamide] | 38 | 1370

Results, then the molecule that gave them:

Emax [%] | EC50 [nM] | SMILES
77 | 108 | Cc1c(Cc2ccc(-n3cccn3)cc2)cc(C(=O)N[C@H]2CCOC[C@@H]2O)c2ncccc12 [compound 23, N-[(3R,4S)-3-hydroxytetrahydropyran-4-yl]-5-methyl-6-[(4-pyrazol-1-ylphenyl)methyl]quinoline-8-carboxamide]
81 | 386 | Cc1c(Cc2ccc(-n3cccn3)cc2)cc(C(=O)N[C@H]2CCCC[C@@H]2O)c2ncccc12 [compound 25, N-[(1S,2S)-2-hydroxycyclohexyl]-5-methyl-6-[(4-pyrazol-1-ylphenyl)methyl]quinoline-8-carboxamide]
72 | 197 | Cc1c(Cc2ccc(-c3ccn(C)n3)nc2)cc(C(=O)N[C@H]2CCOC[C@@H]2O)c2ncccc12 [compound 29, N-[(3R,4S)-3-hydroxytetrahydropyran-4-yl]-5-methyl-6-[[6-(1-methylpyrazol-3-yl)-3-pyridyl]methyl]quinoline-8-carboxamide]
72 | 356 | Cc1c(Cc2ccc(-c3ccn(C)n3)nc2)cc(C(=O)N[C@H]2CCCC[C@@H]2O)c2ncccc12 [compound 30, N-[(1S,2S)-2-hydroxycyclohexyl]-5-methyl-6-[[6-(1-methylpyrazol-3-yl)-3-pyridyl]methyl]quinoline-8-carboxamide]
69 | 336 | Cc1nc(-c2ccc(Cc3cc(C(=O)N[C@H]4CCOC[C@@H]4O)c4ncccc4c3C)cc2)co1 [compound 32, N-[(3R,4S)-3-hydroxytetrahydropyran-4-yl]-5-methyl-6-[[4-(2-methyloxazol-4-yl)phenyl]methyl]quinoline-8-carboxamide]
74 | 562 | Cc1nc(-c2ccc(Cc3cc(C(=O)N[C@H]4CCCC[C@@H]4O)c4ncccc4c3C)cc2)co1 [compound 34, N-[(1S,2S)-2-hydroxycyclohexyl]-5-methyl-6-[[4-(2-methyloxazol-4-yl)phenyl]methyl]quinoline-8-carboxamide]
